US12653190B2, “Heteroaryl-triazole compounds as pesticides” (Bayer Aktiengesellschaft, priority 2020, dated 2026)

Tests used:
Type in all cases: in vivo
[1] = system: southern root-knot nematode (Meloidogyne incognita); assay: Meloidogyne incognita test; conditions: 20 ppm, after 14 days
Method: Meloidogyne incognita—Test
• Solvent: 125.0 parts by weight of acetone
To produce a suitable preparation of active compound, 1 part by weight of active compound is mixed with the stated amount of solvent, and the concentrate is diluted with water to the desired concentration. Vessels are filled with sand, a solution of the active ingredient, a suspension containing eggs and larvae of the southern root-knot nematode (Meloidogyne incognita) and salad seeds. The salad seeds germinate and the seedlings grow. Galls develop in the roots.
After 14 days the nematicidal activity is determined on the basis of the percentage of gall formation. 100% means no galls were found and 0% means the number of galls found on the roots of the treated plants was equal to that in untreated control plants.

[2] = system: larvae of the banded cucumber beetle (Diabrotica balteata); assay: Diabrotica balteata spray test; conditions: 168 h, after 7 days, wheat seeds, read-out: efficacy (seedling growth); for pest or weed control at 32 µg/disc, 100 g/ha: 100 g/ha (=32 μg/well); for pest or weed control at 160 µg/disc, 500 g/ha: 500 g/ha (=160 μg/well)
Summary of the method: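 Germinated wheat seeds on agar (5 per well) were sprayed with compound formulated in acetone/DMF and diluted in water with 1000 ppm emulsifier. Each unit was then infested with 10–20 larvae. Efficacy % was scored after 7 days as seedling growth relative to an untreated, uninfested control (100% = normal growth).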

[3] = system: fall armyworm larvae (Spodoptera frugiperda); assay: Spodoptera frugiperda spray test; conditions: in Zea mays, 168 h
Summary of the method: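 Maize leaf sections were sprayed with compound in acetone/dimethylformamide diluted in water with 1000 ppm emulsifier, dried, then infested with larvae. Mortality in % was scored after 7 days, 100% meaning all caterpillars killed.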

[4] = system: adult mosquitoes Aedes aegypti strain MONHEIM; assay: Aedes aegypti test (AEDSAE surface treatment & contact assay); conditions: 24 hours after contact, read-out: efficacy (mortality); for mortality at 4 mg/m2: surface concentration 4 mg/m^2, 30 minutes exposure; for mortality at 20 mg/m2: surface concentration 20 mg/m^2, 30 minutes exposure
Method: Aedes aegypti Test (AEDSAE Surface Treatment & Contact Assay)
(§1) • Solvent: Aceton+2000 ppm rapeseed oil methyl ester (RME)
(§2) In order to produce a sufficient, active ingredient containing solution it is necessary to solve the test compound in the solvent-mix (acetone at 2 mg/ml/RME 2000 ppm). This solution is pipetted onto a glazed tile and after evaporation of the acetone, adult mosquitoes of the species Aedes aegypti strain MONHEIM are placed onto the dried surface. The exposure time is 30 minutes.
(§3) Mortality in percent (%) is determined 24 hours after contact of the insects to the treated surface. 100% mortality means that all tested insects are dead, whereas 0% means that no insect died.

[5] = system: green peach aphid (Myzus persicae); assay: Myzus persicae spray test; conditions: foliar, 120 h, after 5 days, Chinese cabbage leaf disks
Method: Myzus persicae—Spray Test
• Solvent: 78.0 parts by weight acetone • 1.5 parts by weight dimethylformamide • Emulsifier: alkylarylpolyglycol ether
To produce a suitable preparation of active compound, 1 part by weight of active compound is mixed with the stated amount of solvents and is diluted with water, containing an emulsifier concentration of 1000 ppm, to the desired concentration. Further test concentrations are prepared by dilution with emulsifier containing water.
Chinese cabbage (Brassica pekinensis) leaf disks infected with all instars of the green peach aphid (Myzus persicae), are sprayed with a preparation of the active ingredient of the desired concentration.
(§4) After 5 days mortality in % is determined. 100% means all aphids have been killed and 0% means none of the aphids have been killed.

[6] = system: green peach aphid (Myzus persicae); assay: Myzus persicae oral test; conditions: 120 h, after 5 days
Method: • Solvent: 100 parts by weight acetone
To produce a suitable preparation of active compound, 1 part by weight of active compound is mixed with the stated amount of solvent, and the concentrate is diluted with water to the desired concentration.
50 μL compound solution is filled in microtiter plates and 150 μL IPL41 insect medium (33%+15% sugar) is added to obtain a total volume of 200 μL per well. Afterwards the plates are sealed with parafilm through which a mixed population of the green peach aphid (Myzus persicae) can suck on the compound preparation.
as §4

[7] = system: Rhipicephalus (Boophilus) microplus larvae (strain Parkhurst, resistant against synthetic pyrethroids); assay: Rhipicephalus (Boophilus) microplus in-vitro contact test, larval cattle tick; conditions: 5 μg/cm^2 (=500 g/ha), after 48 hours, read-out: efficacy (larvae dead or moribund)
Method: Rhipicephalus (Boophilus) microplus—In-Vitro Contact Tests Larval Cattle Tick (Strain Parkhurst, Resistant Against Synthetic Pyrethroids)
(§5) 9 mg compound is solved in 1 mL acetone and diluted with acetone to the desired concentration. 250 μL of the test solution is filled in 25 mL glass test tubes and homogeneously distributed on the inner walls by rotation and tilting on a shaking device (2 h at 30 rpm). With a compound concentration of 900 ppm, an inner surface of 44.7 cm^2 and a homogeneous distribution, a dose of 5 μg/cm^2 is achieved.
After the solvent has evaporated, each test tube is filled with 20-50 cattle tick larvae (Rhipicephalus microplus), closed with a perforated lid and incubated in a horizontal position at 85% relative humidity and 27° C. in an incubator. After 48 hours efficacy is determined. The larvae are patted on the ground of the tubes and negative geotactic behavior is recorded.
An efficacy of 100% means all larvae are dead or moribund; 0% means no larvae are dead or moribund.

[8] = system: larvae of the southern green stink bug (Nezara viridula); assay: Nezara viridula spray test; conditions: 96 h, after 4 days, barley plants
Summary of the method: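 Compound in acetone/DMF was diluted in water with 1000 ppm alkylarylpolyglycol ether emulsifier. Barley plants were sprayed with it, then infested with Nezara viridula larvae. Mortality % was scored after 4 days (100% = all killed).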

[9] = system: adult cat fleas (Ctenocephalides felis); assay: Ctenocephalides felis in-vitro contact test, adult cat flea; conditions: 5 μg/cm^2 (=500 g/ha), after 48 hours, read-out: efficacy (fleas dead or moribund)
Method: Ctenocephalides felis—In-Vitro Contact Tests Adult Cat Flea
as §5
(§6) After the solvent has evaporated, each test tube is filled with 5-10 adult cat fleas (Ctenocephalides felis), closed with a perforated lid and incubated in a lying position at room temperature and relative humidity. After 48 hours efficacy is determined. The fleas are patted on the ground of the tubes and are incubated on a heating plate at 45-50° C. for at most 5 minutes Immotile or uncoordinated moving fleas, which are not able to escape the heat by climbing upwards, are marked as dead or moribund.
An efficacy of 100% means all fleas are dead or moribund; 0% means no fleas are dead or moribund.

[10] = system: adult brown dog ticks (Rhipicephalus sanguineus); assay: Rhipicephalus sanguineus in-vitro contact test, adult brown dog ticks; conditions: 5 μg/cm^2 (=500 g/ha), after 48 hours, read-out: efficacy (ticks dead or moribund)
Method: Rhipicephalus sanguineus—In-Vitro Contact Tests with Adult Brown Dog Ticks
as §5
as §6, with “brown dog ticks (Rhipicephalus sanguineus),” for “cat fleas (Ctenocephalides felis),”, “ticks” for “fleas”, “ticks,” for “fleas,”
An efficacy of 100% means all ticks are dead or moribund; 0% means no ticks are dead or moribund.

[11] = system: adult mosquitoes Culex quinquefasciatus strain P00; assay: Culex quinquefasciatus test (CULXFA surface treatment & contact assay); conditions: 24 hours after contact, read-out: efficacy (mortality); for mortality at 20 mg/m2: surface concentration 20 mg/m^2, 30 minutes exposure; for mortality at 4 mg/m2: surface concentration 4 mg/m^2, 30 minutes exposure
Method: Culex quinquefasciatus Test (CULXFA Surface Treatment & Contact Assay)
as §1
as §2, with “2 000” for “2000”, “Culex Quinquefasciatus” for “Aedes aegypti”, “P00” for “MONHEIM”, “minutes. Mortality in percent (%) is determined 24 hours after contact of the insects to the treated surface. 100% mortality means that all tested insects are dead, whereas 0% means that no insect died.” for “minutes.”

[12] = system: adult flies Musca domestica strain WHO-N; assay: Musca domestica test (MUSCDO surface treatment & contact assay); conditions: 24 hours after contact, read-out: efficacy (mortality); for mortality at 4 mg/m2: surface concentration 4 mg/m^2, 30 minutes exposure; for mortality at 20 mg/m2: surface concentration 20 mg/m^2, 30 minutes exposure
Method: Musca domestica Test (MUSCDO Surface Treatment & Contact Assay)
as §1
as §2, with “flies” for “mosquitoes”, “Musca domestica” for “Aedes aegypti”, “WHO-N” for “MONHEIM”
as §3

Compound	nematicidal activity (gall formation) [1] [%]	pest or weed control at 32 µg/disc, 100 g/ha [2] [%]	pest or weed control at 160 µg/disc, 500 g/ha [2] [%]	mortality at 100 g/ha [3] [%]	mortality at 500 g/ha [3] [%]	mortality at 4 mg/m2 [4] [%]	mortality at 20 mg/m2 [4] [%]	mortality at 100 g/ha [5] [%]	mortality at 4 ppm [6] [%]	mortality at 20 ppm ([6]; 20 ppm) [%]	pest or weed control at 5 µg/cm2, 5 µg/cm2 [7] [%]	mortality at 100 g/ha [8] [%]	mortality at 500 g/ha [8] [%]	pest or weed control at 5 µg/cm2, 5 µg/cm2 [9] [%]	pest or weed control at 5 µg/cm2, 5 µg/cm2 [10] [%]	mortality at 20 mg/m2 [11] [%]	mortality at 4 mg/m2 [12] [%]	mortality at 20 mg/m2 [12] [%]	mortality at 4 mg/m2 [11] [%]
C[C@H](NC(=O)c1cc(OCC(Cl)=C(Cl)Cl)cc(C(F)(F)F)c1)c1ncnn1-c1ccc(C#N)cn1 [Example I-24]	90	100	100	100	100	–	–	–	–	–	–	–	–	–	–	–	–	–	–
C[C@H](NC(=O)c1cc(OC[S+](C)[O-])cc(C(F)(F)F)c1)c1ncnn1-c1ccc(C#N)cn1 (stereo partly drawn) [Example I-27, N-{(1S)-1-[1-(5-Cyanopyridin-2-yl)-1H-1,2,4-triazol-5-yl]ethyl}-3-[(methylsulfinyl)methoxy]-5-(trifluoromethyl)benzamide]	–	100	100	100	100	80 to 100	80 to 100	90	100	100	100	100	100	–	–	–	–	–	–
C[C@H](NC(=O)c1cc(OCC2CC2(Cl)Cl)cc(C(F)(F)F)c1)c1ncnn1-c1ccc(C#N)cn1 (stereo partly shown) [Example I-29]	–	100	–	–	–	–	–	–	90	–	–	–	–	–	–	–	–	–	–
C[C@H](NC(=O)c1cc(OCC2CC2(Cl)Cl)cc(C(F)(F)F)c1)c1ncnn1-c1ncc(C#N)s1 (stereo partly shown) [Example I-30]	–	100	–	–	–	–	–	–	90	–	–	–	–	80	–	–	–	–	–
C[C@H](NC(=O)c1cc(Cl)cc(C(C)(C)C#N)c1)c1ncnn1-c1ccc(C#N)cn1 [Example I-33, 3-Chloro-5-(2-cyanopropan-2-yl)-N-{(1S)-1-[1-(5-cyanopyridin-2-yl)-1H-1,2,4-triazol-5-yl]ethyl}benzamide]	–	100	–	100	–	80 to 100	80 to 100	–	100	–	100	–	–	80	100	80 to 100	80 to 100	80 to 100	–
C[C@H](NC(=O)c1cc(OCC(Cl)=C(Cl)Cl)cc(C(F)(F)F)c1)c1ncnn1-c1ncc([N+](=O)[O-])s1 [Example I-34]	–	–	–	–	–	–	–	–	90	–	–	–	–	–	–	–	–	–	–
C[C@H](NC(=O)c1cc(Cl)cc(C(=O)C2CC2)c1)c1ncnn1-c1ccc(C#N)cn1 [Example I-35]	–	100	–	100	–	80 to 100	80 to 100	–	100	–	100	100	–	100	80	80 to 100	80 to 100	80 to 100	–
COc1nc([C@H](C)NC(=O)c2cc(Cl)cc(C(C)(C)C#N)c2)n(-c2ccc(C#N)cn2)n1 [Example I-39]	100	100	–	100	–	–	–	–	–	–	–	–	–	–	–	–	–	–	–
C[C@H](NC(=O)c1cc(C(F)(F)F)cc(C(C)(C)C#N)c1)c1ncnn1-c1ccc(C#N)cn1 [Example I-42]	–	100	–	100	–	80 to 100	80 to 100	100	–	–	100	100	100	80	80	80 to 100	80 to 100	80 to 100	80 to 100
C[C@H](NC(=O)c1cc(C(F)(F)F)cc(C(C)(C)C#N)c1)c1ncnn1-c1ncc(C#N)s1 [Example I-44, 3-(1-Cyano-1-methyl-ethyl)-N-[(1S)-1-[2-(5-cyanothiazol-2-yl)-1,2,4-triazol-3-yl]ethyl]-5-(trifluoromethyl)benzamide]	–	–	–	100	–	80 to 100	80 to 100	100	–	–	100	100	100	100	80	80 to 100	80 to 100	80 to 100	80 to 100
C[C@H](NC(=O)c1cc(Cl)cc(OC(C)(C)C#N)c1)c1ncnn1-c1ncc(C#N)s1 [Example I-61]	90	100	–	100	–	–	–	–	–	–	–	–	–	–	–	–	–	–	–
